Reference: patent US8361968B2 (Takeda Pharmaceutical Company Limited, priority 2002, dated 2013)
Numbered stars: 1 amine (or outer) side, 2 acyl side, 3 side chain; on linkers, the order of the positions; unused ones are H or OH. Square brackets hold non-standard residues; d marks the D form. Peptide text beside a SMILES is read from it. * marks the point of attachment. X4 = CC(C)C[C@H](NCCN*)C(=O)N[C@@H](CCCNC(=N)N)C(=O)N[C@@H](Cc1ccccc1)C(N)=O; X5 = NC(=O)C[C@@H](CN([C@@H](Cc1c[nH]c2ccccc12)C(=O)[*:2])[*:1])N[*:3]; X10 = NC(=O)C[C@@H](C(=O)[*:2])N(C[C@@H](N)Cc1ccc(O)cc1)[*:1]; Butyryl(4-indol-3-yl) = O=C(CCCc1c[nH]c2ccccc12)*; X11 = O=C(CNC(=S)[C@H](Cc1ccccc1)N[*:1])[*:2]; Arg(Me) = CNC(=N)NCCC[C@H](N)C(=O)O; Tryptamide = c1ccc2c(CCN*)c[nH]c2c1; d3Pal = N[C@H](Cc1cccnc1)C(=O)O; Cha = N[C@@H](CC1CCCCC1)C(=O)O; CO = O=C([*:1])[*:2]; azaGly = NNC(=O)O

Target: hOT7T175 (Homo sapiens, UniProt Q969F8, L364H)
Assay: Intracellular Ca ion level-increasing activity using FLIPR in hOT7T175/CHO
Type: cell-based
Set-up: expressed in transfected cells; host or cells: CHO/dhfr- cells, obtained from ATCC
Conditions: relative, Metastin (1-54) = 1

hOT7T175, sequence (Q969F8 whole entry L364H): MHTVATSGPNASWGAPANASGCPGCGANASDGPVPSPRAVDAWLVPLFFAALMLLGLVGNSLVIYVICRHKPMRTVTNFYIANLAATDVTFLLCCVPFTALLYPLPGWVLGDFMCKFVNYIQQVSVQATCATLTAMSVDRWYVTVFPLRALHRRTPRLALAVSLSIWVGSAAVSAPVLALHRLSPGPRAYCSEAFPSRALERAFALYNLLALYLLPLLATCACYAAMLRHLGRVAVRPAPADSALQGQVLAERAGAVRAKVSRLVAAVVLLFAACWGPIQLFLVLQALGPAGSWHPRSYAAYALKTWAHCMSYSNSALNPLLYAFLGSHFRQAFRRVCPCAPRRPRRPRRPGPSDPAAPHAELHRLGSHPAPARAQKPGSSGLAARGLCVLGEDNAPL

`CNC(=N)NCCC[C@H](NC(=O)[C@H](CC(C)C)NC(=O)NNC(=O)[C@H](Cc1ccccc1)NC(=O)[C@H](CO)NC(=O)[C@H](CC(N)=O)NC(=O)[C@H](Cc1ccccc1)NC(=O)[C@H](N)Cc1cccnc1)C(=O)N[C@@H](Cc1ccccc1)C(N)=O` [Compound No. 256, D-Pya(3)-Phe-Asn-Ser-Phe-AzaGly-Leu-Arg(Me)-Phe-NH2] (H-[d3Pal]FNSF[azaGly]L[Arg(Me)]F-NH2) and `CNC(=N)NCCC[C@H](NC(=O)[C@H](CC(C)C)NC(=O)NNC(=O)[C@H](Cc1ccccc1)NC(=O)[C@H](CO)NC(=O)[C@H](CC(N)=O)NC(=O)[C@H](Cc1c[nH]c2ccccc12)NC(=O)[C@H](N)Cc1cccnc1)C(=O)N[C@@H](Cc1ccccc1)C(N)=O` [Compound No. 289, D-Pya(3)-Trp-Asn-Ser-Phe-AzaGly-Leu-Arg(Me)-Phe-NH2] (H-[d3Pal]WNSF[azaGly]L[Arg(Me)]F-NH2) are the same in “Specific Activity (intracellular Ca ion level-increasing activity)” value: 1 for the first, 1 for the second.

Compared with `CNC(=N)NCCC[C@H](NC(=O)[C@H](CC(C)C)NC(=O)NNC(=O)[C@H](Cc1ccccc1)NC(=O)[C@H](CO)NC(=O)[C@H](CC(N)=O)NC(=O)[C@H](Cc1ccccc1)NC(=O)[C@@H](CC(N)=O)NC(=O)[C@H](N)Cc1ccc(O)cc1)C(=O)N[C@@H](Cc1ccccc1)C(N)=O` [Compound No. 257, D-Tyr-D-Asn-Phe-Asn-Ser-Phe-AzaGly-Leu-Arg(Me)-Phe-NH2] (H-[dY][dN]FNSF[azaGly]L[Arg(Me)]F-NH2), `CNC(=N)NCCC[C@H](NC(=O)[C@H](CC(C)C)NC(=O)NNC(=O)[C@H](Cc1ccccc1)NC(=O)[C@H](CO)NC(=O)[C@H](CC(N)=O)NC(=O)[C@H](Cc1c[nH]c2ccccc12)NC(=O)[C@@H](CO)NC(=O)[C@H](N)Cc1ccc(O)cc1)C(=O)N[C@@H](Cc1ccccc1)C(N)=O` [Compound No. 287, D-Tyr-D-Ser-Trp-Asn-Ser-Phe-AzaGly-Leu-Arg(Me)-Phe-NH2] (H-[dY][dS]WNSF[azaGly]L[Arg(Me)]F-NH2) is lower in “Specific Activity (intracellular Ca ion level-increasing activity)” value: 3 for the first, 2 for the second.

Compared with `CNC(=N)NCCC[C@H](NC(=O)[C@H](CC(C)C)NC(=O)NNC(=O)[C@H](Cc1ccccc1)NC(=O)[C@H](CO)NC(=O)[C@H](CC(N)=O)NC(=O)[C@H](Cc1c[nH]c2ccccc12)NC(=O)[C@H](CC(N)=O)NC(=O)[C@H](N)Cc1cccnc1)C(=O)N[C@@H](Cc1ccccc1)C(N)=O` [Compound No. 258, D-Pya(3)-Asn-Trp-Asn-Ser-Phe-AzaGly-Leu-Arg(Me)-Phe-NH2] (H-[d3Pal]NWNSF[azaGly]L[Arg(Me)]F-NH2), `CNC(=N)NCCC[C@H](NC(=O)[C@H](CC(C)C)NC(=O)NNC(=O)[C@H](Cc1ccccc1)NC(=O)[C@H](CO)NC(=O)[C@H](CC(N)=O)NC(=O)[C@H](Cc1c[nH]c2ccccc12)NC(=O)[C@H](CC(N)=O)NC(=O)[C@@H](C)N)C(=O)N[C@@H](Cc1ccccc1)C(N)=O` [Compound No. 259, D-Ala-Asn-Trp-Asn-Ser-Phe-AzaGly-Leu-Arg(Me)-Phe-NH2] (H-[dA]NWNSF[azaGly]L[Arg(Me)]F-NH2) is lower in “Specific Activity (intracellular Ca ion level-increasing activity)” value: 2 for the first, 1 for the second.

Compared with `CC(C)C[C@H](NCCNC(=O)[C@H](Cc1ccccc1)NC(=O)[C@H](CO)NC(=O)[C@H](CC(N)=O)NC(=O)[C@H](Cc1c[nH]c2ccccc12)NC(=O)[C@H](CC(N)=O)NC(=O)[C@@H](N)Cc1ccc(O)cc1)C(=O)N[C@@H](CCCNC(=N)N)C(=O)N[C@@H](Cc1ccccc1)C(N)=O` [Compound No. 261, Tyr-Asn-Trp-Asn-Ser-Phe-GlyΨ(CH2NH)Leu-Arg-Phe-NH2] (H-YNWNSF-X4; N-terminus assumed), `CC(C)C[C@H](NC(=O)CNC(=O)[C@H](Cc1ccccc1)NC(=O)[C@H](CO)NC(=O)[C@H](CC(N)=O)NC(=O)[C@H](Cc1c[nH]c2ccccc12)NC(=O)[C@H](CC(N)=O)NC[C@@H](N)Cc1ccc(O)cc1)C(=O)N[C@@H](CCCNC(=N)N)C(=O)N[C@@H](Cc1ccccc1)C(N)=O` [Compound No. 294] (H-[X10]WNSFGLRF-NH2) is higher in “Specific Activity (intracellular Ca ion level-increasing activity)” value: 1 for the first, 10 for the second.

First: CNC(=N)NCCC[C@H](NC(=O)[C@H](CC(C)C)NC(=O)NNC(=O)[C@H](Cc1ccccc1)NC(=O)[C@H](CO)NC(=O)[C@H](CC(N)=O)NC(=O)CCCc1c[nH]c2ccccc12)C(=O)N[C@@H](Cc1ccccc1)C(N)=O [Compound No. 267, 4-(3-Indolyl)butyryl-Asn-Ser-Phe-AzaGly-Leu-Arg(Me)-Phe-NH2] ({Butyryl(4-indol-3-yl)}-NSF[azaGly]L[Arg(Me)]F-NH2)
Second: CNC(=N)NCCC[C@H](NC(=O)[C@H](CC(C)C)NC(=O)NNC(=O)[C@H](Cc1ccccc1)NC(=O)[C@H](CO)NC(=O)[C@H](CC(N)=O)NC(=O)NCCc1c[nH]c2ccccc12)C(=O)N[C@@H](Cc1ccccc1)C(N)=O [Compound No. 279, 2-(indol-3-yl)ethylcarbamoyl-Asn-Ser-Phe-AzaGly-Leu-Arg(Me)-Phe-NH2] ({Tryptamide-CO}-NSF[azaGly]L[Arg(Me)]F-NH2)
The “Specific Activity (intracellular Ca ion level-increasing activity)” value of the first is lower: 2 for the first, 5 for the second.

`CNC(=N)NCCC[C@H](NC(=O)[C@H](CC(C)C)NC(=O)NNC(=O)[C@H](Cc1ccccc1)NC(=O)[C@H](CO)NC(=O)[C@H](CC(N)=O)NC(=O)[C@@H](NC(=O)[C@@H](CC(N)=O)NC(=O)[C@H](N)Cc1ccc(O)cc1)[C@@H](C)O)C(=O)N[C@@H](Cc1ccccc1)C(N)=O` [Compound No. 284, D-Tyr-D-Asn-Thr-Asn-Ser-Phe-AzaGly-Leu-Arg(Me)-Phe-NH2] (H-[dY][dN]TNSF[azaGly]L[Arg(Me)]F-NH2) and `CNC(=N)NCCC[C@H](NC(=O)[C@H](CC(C)C)NC(=O)NNC(=O)[C@H](Cc1ccccc1)NC(=O)[C@@H](NC(=O)[C@H](CC(N)=O)NC(=O)[C@H](Cc1c[nH]c2ccccc12)NC(=O)[C@H](CC(N)=O)NC(=O)[C@H](N)Cc1ccc(O)cc1)[C@@H](C)O)C(=O)N[C@@H](Cc1ccccc1)C(N)=O` [Compound No. 297, D-Tyr-Asn-Trp-Asn-Thr-Phe-AzaGly-Leu-Arg(Me)-Phe-NH2] (H-[dY]NWNTF[azaGly]L[Arg(Me)]F-NH2; N-terminus assumed) are the same in “Specific Activity (intracellular Ca ion level-increasing activity)” value: 1 for the first, 1 for the second.

Going from `CNC(=N)NCCC[C@H](NC(=O)[C@H](CC(C)C)NC(=O)NNC(=O)[C@H](Cc1ccccc1)NC(=O)[C@H](CO)NC(=O)[C@H](CC(N)=O)NC(=O)[C@H](Cc1c[nH]c2ccccc12)NC(=O)[C@@H](Cc1c[nH]cn1)NC(=O)[C@H](N)Cc1ccc(O)cc1)C(=O)N[C@@H](Cc1ccccc1)C(N)=O` [Compound No. 288, D-Tyr-D-His-Trp-Asn-Ser-Phe-AzaGly-Leu-Arg(Me)-Phe-NH2] (H-[dY][dH]WNSF[azaGly]L[Arg(Me)]F-NH2) to `CNC(=N)NCCC[C@H](NC(=O)[C@H](CC(C)C)NC(=O)NNC(=O)[C@H](Cc1ccccc1)NC(=O)[C@H](CO)NC(=O)[C@H](CC(N)=O)NC(=O)[C@H](Cc1c[nH]c2ccccc12)NC(=O)[C@H](CC(N)=O)NC[C@@H](N)Cc1ccc(O)cc1)C(=O)N[C@@H](Cc1ccccc1)C(N)=O` [Compound No. 299, TyrΨ(CH2NH)Asn-Trp-Asn-Ser-Phe-AzaGly-Leu-Arg(Me)-Phe-NH2] (H-[X10]WNSF[azaGly]L[Arg(Me)]F-NH2), the “Specific Activity (intracellular Ca ion level-increasing activity)” value rises from 1 to 5.

Going from `CNC(=N)NCCC[C@H](NC(=O)[C@H](CC(C)C)NC(=O)NNC(=O)[C@H](Cc1ccccc1)NC(=O)[C@H](CO)NC(=O)[C@H](CC(N)=O)NC(=O)[C@H](CC1CCCCC1)NC(=O)[C@@H](CC(N)=O)NC(=O)[C@H](N)Cc1cccnc1)C(=O)N[C@@H](Cc1ccccc1)C(N)=O` [Compound No. 290, D-Pya(3)-D-Asn-Cha-Asn-Ser-Phe-AzaGly-Leu-Arg(Me)-Phe-NH2] (H-[d3Pal][dN][Cha]NSF[azaGly]L[Arg(Me)]F-NH2) to `CNC(=N)NCCC[C@H](NC(=O)[C@H](CC(C)C)NC(=O)NNC(=O)[C@H](Cc1ccccc1)NC(=O)[C@H](CO)NC(=O)[C@H](CC(N)=O)NC(=O)[C@H](CC1CCCCC1)NC(=O)[C@@H](Cc1ccc(O)cc1)NC(=O)[C@H](N)Cc1cccnc1)C(=O)N[C@@H](Cc1ccccc1)C(N)=O` [Compound No. 291, D-Pya(3)-D-Tyr-Cha-Asn-Ser-Phe-AzaGly-Leu-Arg(Me)-Phe-NH2] (H-[d3Pal][dY][Cha]NSF[azaGly]L[Arg(Me)]F-NH2; N-terminus assumed), the “Specific Activity (intracellular Ca ion level-increasing activity)” value rises from 1 to 2.

Compared with `CC(C)C[C@H](NC(=O)CNC(=O)[C@H](Cc1ccccc1)NC(=O)[C@H](CO)NC(=O)[C@H](CC(N)=O)NC(=O)[C@H](Cc1c[nH]c2ccccc12)NC[C@H](CC(N)=O)NC(=O)[C@@H](N)Cc1ccc(O)cc1)C(=O)N[C@@H](CCCNC(=N)N)C(=O)N[C@@H](Cc1ccccc1)C(N)=O` [Compound No. 295] (H-[X5](Tyr)NSFGLRF-NH2), `CNC(=N)NCCC[C@H](NC(=O)[C@H](CC(C)C)NC(=O)CNC(=S)[C@H](Cc1ccccc1)NC(=O)[C@H](CO)NC(=O)[C@H](CC(N)=O)NC(=O)[C@H](Cc1c[nH]c2ccccc12)NC(=O)[C@H](CC(N)=O)NC(=O)[C@H](N)Cc1ccc(O)cc1)C(=O)N[C@@H](Cc1ccccc1)C(N)=O` [Compound No. 296, D-Tyr-Asn-Trp-Asn-Ser-PheΨ(CSNH)Gly-Leu-Arg(Me)-Phe-NH2] (H-[dY]NWNS[X11]L[Arg(Me)]F-NH2) is higher in “Specific Activity (intracellular Ca ion level-increasing activity)” value: 1 for the first, 3 for the second.

For `CNC(=N)NCCC[C@H](NC(=O)[C@H](CC(C)C)NC(=O)NNC(=O)[C@H](Cc1ccccc1)NC(=O)[C@@H](NC(=O)[C@H](CC(N)=O)NC(=O)[C@H](Cc1c[nH]c2ccccc12)NC(=O)[C@@H](CC(N)=O)NC(=O)[C@H](N)Cc1ccc(O)cc1)[C@@H](C)O)C(=O)N[C@@H](Cc1ccccc1)C(N)=O` [Compound No. 298, D-Tyr-D-Asn-Trp-Asn-Thr-Phe-AzaGly-Leu-Arg(Me)-Phe-NH2] (H-[dY][dN]WNTF[azaGly]L[Arg(Me)]F-NH2), the “Specific Activity (intracellular Ca ion level-increasing activity)” value was 5.
